This is an account of results in patent publication US7223751B2, “Sulfonamide derivatives, intermediate thereof, its preparation methods, and pharmaceutical composition comprising the same” (Kolon Ind. Inc., priority 2001, dated 2007).

pIC50: −log10 of the molar value.

In one assay the target is MMP-9 (Homo sapiens, UniProt P14780). Kind of assay: MMP inhibiting activity, fluorescence assay. Format: biochemical. Particulars: read-out: Enzyme inhibiting constant IC50 MMP-9. How it is done:
(§1) Inhibitory activities of all the enzymes were measured similarly to the MMP-2 activity measuring method shown below. Prior to measuring, proMMP-2 was treated with 1 mM p-aminophenyl mercuricacetate at 37° C. for 45 minutes to activate it. The ProMMP-9 was activated to an enzyme with MMP-3, and stored at −80° C. until used.
(§2) MMP activities were measured by fluorescence assay by changing a microtiter plate formate according to the reported method (Knight, C. G., Willenbrock, F., Murphy, G. A., FEBS Lett. 1992, 296, 263-266). On a dynatech MicroFLUOR plate, a buffer solution comprising 50 Mm Tris-HCl pH 7.5, 10 mM CaCl2, 0.15 M NaCl, 0.05% Brij, and 1-8 μM of a substrate (Mca-Pro-Leu-Gly-Leu-Dpa-Ala-Arg-NH2), and various concentrations of inhibitors were introduced, and it was reacted with activated enzymes at 37° C. for 20-30 minutes. Reaction was terminated by putting the reactant in 50 mM EDTA, and then fluorescence was measured with a spectrofluorometer attached to a microplate reader (λex 328 nm, λ em 393 nm). The inhibiting activity degree was indicated by an IC50 value, which is a concentration inhibiting activity by 50% compared to the control.

A further assay deals with T1, MMP-2 (Homo sapiens, UniProt P08253).
T1 sequence (P08253 110-660): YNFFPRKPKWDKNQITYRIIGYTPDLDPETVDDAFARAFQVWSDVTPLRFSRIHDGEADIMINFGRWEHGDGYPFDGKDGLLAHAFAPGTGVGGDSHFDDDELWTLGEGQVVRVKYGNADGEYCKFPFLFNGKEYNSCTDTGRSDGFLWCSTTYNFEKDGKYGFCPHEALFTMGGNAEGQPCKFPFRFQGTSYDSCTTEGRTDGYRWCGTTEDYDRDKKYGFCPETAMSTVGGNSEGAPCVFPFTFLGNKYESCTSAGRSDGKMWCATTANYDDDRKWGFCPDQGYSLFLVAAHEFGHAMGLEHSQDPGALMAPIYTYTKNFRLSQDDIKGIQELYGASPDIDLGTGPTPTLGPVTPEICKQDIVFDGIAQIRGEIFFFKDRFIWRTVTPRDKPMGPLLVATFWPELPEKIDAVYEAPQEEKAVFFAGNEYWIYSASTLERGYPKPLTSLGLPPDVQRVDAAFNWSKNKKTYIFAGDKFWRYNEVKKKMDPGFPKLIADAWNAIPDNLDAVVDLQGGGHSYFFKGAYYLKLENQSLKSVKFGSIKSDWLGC
In words: MMP inhibiting activity, fluorescence assay. It counts as biochemical. Particulars: read-out: Enzyme inhibiting constant IC50 MMP-2. How it is done: as §1, §2

A further assay addresses MMP-14 (Homo sapiens, UniProt P50281). In words: MMP inhibiting activity, fluorescence assay. It counts as biochemical. Particulars: read-out: Enzyme inhibiting constant IC50 MMP-14. How it is done:
as §1, §2

Assay [1] has as its system HUVEC (human umbilical vein endothelial cell) cells. In words: Tube formation activity on matrigel. It counts as cell-based. Set-up: key: −: control; ±: tube almost resembles control; +: inhibition; ++: significant inhibition; +++: complete inhibition. Particulars: 16-24 hours. How it is done:
In a culture flask previously coated with gelatin, HUVEC (human umbilical vein endothelial cell) cells cultured with a M199 medium (containing 20% FBS, 3 ng/ml bFGF, 100 μg/ml heparin) were treated with trypsin/EDTA, and then number of cells are counted so that number of cells may be 2×10^4 cells/well in a 96-well plate previously coated with matrigel. Samples were then added and cultured in a CO2 culture medium at 37° C. for 16-24 hours.

The target in another assay is T2, MMP-1 (Homo sapiens, UniProt P03956).
T2 sequence (P03956 100-469): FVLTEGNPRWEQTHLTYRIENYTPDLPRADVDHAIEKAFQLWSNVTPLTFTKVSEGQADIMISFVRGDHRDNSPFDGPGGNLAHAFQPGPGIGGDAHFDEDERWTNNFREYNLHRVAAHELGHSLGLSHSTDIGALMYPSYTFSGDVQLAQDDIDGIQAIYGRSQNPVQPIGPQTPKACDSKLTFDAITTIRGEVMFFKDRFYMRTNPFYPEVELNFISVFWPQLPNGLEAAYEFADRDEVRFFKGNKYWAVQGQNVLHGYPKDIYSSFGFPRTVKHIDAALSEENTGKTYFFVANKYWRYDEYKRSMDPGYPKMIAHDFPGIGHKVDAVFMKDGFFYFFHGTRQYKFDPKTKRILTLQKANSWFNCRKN
In words: MMP inhibiting activity, fluorescence assay. It counts as biochemical. Particulars: read-out: Enzyme inhibiting constant IC50 MMP-1. How it is done:
as §1, §2

Another assay addresses MMP-13 (Homo sapiens, UniProt P45452). In words: MMP inhibiting activity, fluorescence assay. Format: biochemical. Particulars: read-out: Enzyme inhibiting constant IC50 MMP-13. How it is done:
as §1, §2

MMP-9, sequence (P14780 107-707 limits assumed, species assumed): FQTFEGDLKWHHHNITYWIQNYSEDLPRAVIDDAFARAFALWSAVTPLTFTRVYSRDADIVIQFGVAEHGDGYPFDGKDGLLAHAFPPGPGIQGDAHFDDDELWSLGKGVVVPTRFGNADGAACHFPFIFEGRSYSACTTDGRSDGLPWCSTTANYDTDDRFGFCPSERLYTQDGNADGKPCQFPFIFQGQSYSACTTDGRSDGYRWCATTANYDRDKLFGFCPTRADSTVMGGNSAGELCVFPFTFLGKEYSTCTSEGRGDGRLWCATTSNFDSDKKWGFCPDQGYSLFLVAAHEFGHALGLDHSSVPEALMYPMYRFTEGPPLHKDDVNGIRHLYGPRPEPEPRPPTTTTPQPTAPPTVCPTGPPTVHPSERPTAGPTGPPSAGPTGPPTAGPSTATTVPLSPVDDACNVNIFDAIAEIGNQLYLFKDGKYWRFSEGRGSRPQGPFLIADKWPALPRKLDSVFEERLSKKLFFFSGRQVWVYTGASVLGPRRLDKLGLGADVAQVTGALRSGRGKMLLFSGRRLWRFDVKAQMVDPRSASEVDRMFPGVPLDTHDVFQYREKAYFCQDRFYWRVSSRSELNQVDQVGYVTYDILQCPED

Regarding `COc1ccc(S(=O)(=O)N2CC(=O)NCC2C(=O)NO)cc1` (stereo not drawn) [Example 5, 1-(4-Methoxy-benzenesulfonyl)-5-oxo-piperazine-2-hydroxamate], the pIC50 at MMP-9 was 7.91; on MMP-2, 8.40; at MMP-14, 7.55. In addition, the “Tube Formation” value in assay [1] (concentration 5 μM) is “±”; in assay [1] (concentration 50 μM) it was “+”; in assay [1] (concentration 100 μM), “++”.

Regarding `CCCCCCCCN1CC(C(=O)O)N(S(=O)(=O)c2ccc(NC(=O)c3ccc(Cl)cc3)cc2)CC1=O` (stereo not drawn) [Example 60, 1-[4-(4-chloro-benzoylamino)-benzenesulfonyl]-4-octyl-5-oxo-piperazine-2-carboxylic acid], the pIC50 on MMP-1 was 7.74; at MMP-9, 8.49; on MMP-2 it was 8.52; on MMP-13, 7.62. For the same compound, the “Tube Formation” value in assay [1] (concentration 0.5 μM) was “+”; in assay [1] (concentration 5 μM), “++”; in assay [1] (concentration 50 μM), “++”.

“4-Benzyl-1-(4-methoxy-benzenesulfonyl)-5-oxo-piperazine-2-hydroxamate [Example 7]”: the pIC50 on MMP-1 was 7.28; on MMP-9, 7.60; on MMP-2, 8.15; on MMP-13 it was 7.74; on MMP-14, 7.44. The entries for the “Tube Formation” value in assay [1] (concentration 5 μM) and in assay [1] (concentration 50 μM) were “±” and “+”, respectively.

With `CCCCN1CC(C(=O)O)N(S(=O)(=O)c2ccc(-c3ccc(Br)cc3)cc2)CC1=O` (stereo not drawn) [Example 49, 1-(4′-Bromo-biphenyl-4-sulfonyl)-4-butyl-5-oxo-piperazine-2-carboxylic acid], the pIC50 was 6.94 on MMP-1, 8.05 on MMP-2 and 5.95 on MMP-13. Moreover, the “Tube Formation” value was “±” in assay [1] (concentration 0.5 μM), “++” in assay [1] (concentration 5 μM) and “++” in assay [1] (concentration 50 μM).

For `CCCCCCCCN1CC(C(=O)NO)N(S(=O)(=O)c2ccc(-c3ccc(Br)cc3)cc2)CC1=O` (stereo not drawn) [Example 32, 1-(4′-Bromo-biphenyl-4-sulfonyl)-4-octyl-5-oxo-piperazine-2-hydroxamate], the pIC50 was 7.80 on MMP-1, 8.89 on MMP-9, 8.70 on MMP-2 and 8.15 at MMP-13. Further, the “Tube Formation” value in assay [1] (concentration 5 μM) was “++”; in assay [1] (concentration 50 μM) it was “+++”; in assay [1] (concentration 100 μM), “+++”.

Turning to `COc1ccc(S(=O)(=O)N2CC(=O)N(CCc3ccccn3)CC2C(=O)NO)cc1` (stereo not drawn) [Example 15], the pIC50 at MMP-1, at MMP-2 and on MMP-13 was below 5.00 each time. The “Tube Formation” value in assay [1] (concentration 5 μM) is on record as “+”; in assay [1] (concentration 50 μM) it was “+”; in assay [1] (concentration 100 μM), “++”.

For the compound “4-Butyl-1-(4-methoxy-benzenesulfonyl)-5-oxo-piperazine-2-hydroxamate [Example 19]”, the pIC50 at MMP-1 is 7.33; on MMP-2, 7.82; at MMP-13, 7.85. The “Tube Formation” value in assay [1] (concentration 5 μM) is on record as “+”; in assay [1] (concentration 50 μM), “+”; in assay [1] (concentration 100 μM), “++”.
